One assay concerns HLA-A24 antigen. As to conditions: compared with the natural type peptide WT1235-243; cited from earlier work.
Assay [1] deals with HLA-A2402/K^b transgenic mice. The assay is described as follows: In vivo immunogenicity (CTL-inducing activity): immunization of HLA-A2402/K^b transgenic mice, 51Cr release assay of in vitro restimulated splenocytes. More on the design: species or system mouse. As for the experimental part: In vivo immunogenicity of each antigen peptide was evaluated using the HLA-A2402/K^b transgenic mice. The preparation of the transgenic mice and the determination of in vivo immunogenicity were conducted according to WO 02/47474, and Int J. Cancer. 100, 565-570 (2002) that describe them in detail.
The non-substituted type peptide and the substituted type peptides as described above were synthesized using Fmoc method. The peptides synthesized were each adjusted to 40 mg/ml in DMSO, and each diluted with a sterilized water to 2.4 mg/ml. They were then mixed with a 1.27 parts of Freund's incomplete adjuvant (ISA51) using a glass syringe to prepare a water-in-oil emulsion. The resultant emulsion (200 μl) was injected into the HLA-A2402/K^b transgenic mouse subcutaneously in the base of the tail for immunization.
Seven days after the immunization, the spleen was removed and grounded on the frosted part of glass slide, and splenocytes were recovered and prepared. A portion of the splenocytes undergone hemolysis treatment with an ACK buffer (0.15 M NH4Cl, 10 mM KHCO3, 0.1 mM EDTA, pH 7.2-7.4) was pulsed with the above-mentioned peptide compositions at 100 μg/ml for 1 hour, and seeded into a 24-well plate at 7×10^5/well. Simultaneously, splenocytes not pulsed with any peptide (7×10^6/well) were added together, and stimulated in vitro and incubated at 37° C. for 5 to 6 days. The in vitro stimulation was carried out in RPMI1640 medium supplemented with 10% FCS, 10 mM HEPES, 20 mM L-glutamine, 1 mM sodium pyruvate, 1 mM MEM nonessential amino acids, 1% MEM vitamin and 55 μM 2-mercaptoethanol.
The test for cytotoxic activity was conducted according to the conventional manner. EL4-A2402/K^b cells obtained by transforming EL-4 cells (DAINIPPON PHARMACEUTICAL CO., LTD., Catalogue No. 06-039) with an expression vector encoding HLA-A2402/K^b, and the EL4-A2402/K^b cells pulsed with peptide A, B, C, D, E, or F were used as target cells (T). The EL4-A2402/K^b cells were prepared in a similar manner to the preparation of Jurkat-A2402/K^b cells described in WO 02/47474.
These cells were labeled with ^51Cr (3.7 MBq/10^6 cells) and pulsed with the peptide at 100 μg/ ml for an hour (The labeling was carried out over 2 hours, and 1 hour after the initiation of labeling, the peptide was added). Splenocytes in vitro stimulated and incubated were used as effector cells (E). They were combined with the target cells at various ratios, and ^51Cr release assay (J. Immunol., 1997; 159: 4753) was conducted to determine the cytotoxic activity of the effector cells. […]
The substituted type peptides were synthesized using Fmoc method. The peptides synthesized were each adjusted to 40 mg/ml in DMSO, and each diluted with a physiological saline to 2.4 mg/ml. They were then mixed with a 1.27 parts of Freund's incomplete adjuvant (ISA51) using a glass syringe to prepare a water-in-oil emulsion. The resultant emulsion (200 μl) was injected into the HLA-A2402/K^b transgenic mouse subcutaneously in the base of the tail for immunization.
The test for cytotoxic activity was conducted according to the conventional manner. EL4-A2402/K^b cells obtained by transforming EL-4 cells with an expression vector encoding HLA-A2402/K^b, and the EL4-A2402/K^b cells pulsed with peptide K, L, or M were used as target cells (T).
These cells were labeled with ^51Cr (3.7 MBq/10^6 cells) and pulsed with the peptide at 100 μg/ml for an hour (The labeling was carried out over 2 hours, and 1 hour after the initiation of labeling, the peptide was added). Splenocytes in vitro stimulated and incubated were used as effector cells (E). They were combined with the target cells at various ratios, and ^51Cr release assay (J. Immunol., 1997; 159: 4753) was conducted to determine the cytotoxic activity of the effector cells.

The next assay concerns CTLs. As to conditions: Clin. Cancer. Res. 8: 2626, 2002, and WO 00/06602; cited from earlier work.
[2] abbreviates: Example 1, s.c. immunization with peptide in ISA51 water-in-oil emulsion, splenocytes 7 days after, target EL4-A2402/K^b cells pulsed with the peptide at 100 μg/ml vs not pulsed.
Where [3] appears, read: Example 3, peptide with KLH in ISA51 emulsion s.c., target EL4-A2402/K^b cells pulsed with the peptide at 20 μg/ml vs not pulsed.
[4] abbreviates: Example 4, peptide in saline/ISA51 emulsion s.c., target EL4-A2402/K^b cells pulsed with the peptide at 100 μg/ml vs not pulsed.

These results are taken from US7378384B2, “WT1 substitution peptides” (International Institute of Cancer Immunology, Inc., priority 2002, dated 2008).

“Also recorded” adds a separate entry of the source. Non-standard residues stand in square brackets, D forms with d. No end group written: not given here. Cit = NC(=O)NCCC[C@H](N)C(=O)O; Orn = NCCC[C@H](N)C(=O)O; Abu = CC[C@H](N)C(=O)O

Regarding “CYTWNQMNL [peptide A, reference compound]”, in the assay on HLA-A24 antigen, the “binding activity to the HLA-A24 antigen” value is reported as “higher binding activity to the HLA-A24 antigen than the natural type peptide”. Moreover, in assay [1] (setting [2]), the “immunogenicity (activity to induce CTLs); cytotoxic activity (% Specific Lysis) vs E/T ratio” value (“immunogenicity … (% Specific Lysis) vs E/T ratio” for short) is listed as “specific CTLs were induced”. Consider SYTWNQMNL [peptide B], for which the “immunogenicity … (% Specific Lysis) vs E/T ratio” value in assay [1] (setting [2]) is “specific CTLs were induced”.

For SMTWNQMNL [peptide G], in assay [1] (setting [3]), the “immunogenicity … (% Specific Lysis) vs E/T ratio” value is given as “have an immunogenicity (an activity to induce CTLs); also recorded: specific CTLs were induced”. LYTWNQMNL [peptide K]: the “immunogenicity … (% Specific Lysis) vs E/T ratio” value in assay [1] (setting [4]) is on record as “have an immunogenicity (an activity to induce CTLs); also recorded: specific CTLs were induced”. For KYTWNQMNL [peptide F], in assay [1] (setting [2]), the “immunogenicity … (% Specific Lysis) vs E/T ratio” value is listed as “specific CTLs were induced”. Still for that read-out and setting: with “Abu-Tyr-Thr-Trp-Asn-Gln-Met-Asn-Leu ([Abu]YTWNQMNL) [peptide D]” the entry was “specific CTLs were induced”. Turning to NYTWNQMNL [peptide M], the “immunogenicity … (% Specific Lysis) vs E/T ratio” value in assay [1] (setting [4]) is reported as “have an immunogenicity (an activity to induce CTLs); also recorded: specific CTLs were induced”.

With AMTWNQMNL [peptide H], the “immunogenicity … (% Specific Lysis) vs E/T ratio” value in assay [1] (Example 3, peptide with KLH in ISA51 emulsion s.c., target Jurkat-A2402/K^b cells pulsed with the peptide at 20 μg/ml vs not pulsed) is reported as “have an immunogenicity (an activity to induce CTLs); also recorded: specific CTLs were induced”.

Turning to “Orn Tyr Thr Trp Asn Gln Met Asn Leu ([Orn]YTWNQMNL) [peptide I]”, the “immunogenicity … (% Specific Lysis) vs E/T ratio” value in assay [1] (setting [3]) is given as “have an immunogenicity (an activity to induce CTLs); also recorded: specific CTLs were induced”. Consider AYTWNQMNL [peptide C], for which, in assay [1] (setting [2]), the “immunogenicity … (% Specific Lysis) vs E/T ratio” value is reported as “specific CTLs were induced”. For the substance RYTWNQMNL [peptide E], the “immunogenicity … (% Specific Lysis) vs E/T ratio” value in assay [1] (setting [2]) was “specific CTLs were induced”. Consider FYTWNQMNL [peptide L], for which the “immunogenicity … (% Specific Lysis) vs E/T ratio” value in assay [1] (setting [4]) was “have an immunogenicity (an activity to induce CTLs); also recorded: specific CTLs were induced”.

On to “Cit Tyr Thr Trp Asn Gln Met Asn Leu ([Cit]YTWNQMNL) [peptide J]”, for which the “immunogenicity … (% Specific Lysis) vs E/T ratio” value in assay [1] (setting [3]) is on record as “have an immunogenicity (an activity to induce CTLs); also recorded: specific CTLs were induced”. Turning to CMTWNQMNL [WT1235-243], in the assay on CTLs, the “activity to induce CTLs in HLA-A24-restricted manner” value is “having an activity to induce CTLs in HLA-A24-restricted manner”.
